Target: Carbonic anhydrase 9 (Homo sapiens, UniProt Q16790)
Test: Inhibition of recombinant human carbonic anhydrase 9 incubated for 15 mins prior to testing by stopped flow CO2 hydration assay

| Structure (SMILES) | Ki [nM] |
| --- | --- |
| Cc1cccc2c(=O)n(-c3cccc(S(N)(=O)=O)c3)c(S)nc12 | 25.2 |
| COc1ccc2c(=O)n(-c3cccc(S(N)(=O)=O)c3)c(S)nc2c1 | 25 |
| Cc1cc2nc(S)n(-c3cccc(S(N)(=O)=O)c3)c(=O)c2cc1C | 34.5 |
| COc1cc2nc(S)n(-c3cccc(S(N)(=O)=O)c3)c(=O)c2cc1OC | 19.8 |
| NS(=O)(=O)c1cccc(-n2c(S)nc3cc(Br)ccc3c2=O)c1 | 16.8 |
| NS(=O)(=O)c1cccc(-n2c(S)nc3ccccc3c2=O)c1 | 76.1 |
| COc1cc2c(=O)n(-c3cccc(S(N)(=O)=O)c3)c(S)nc2c(OC)c1OC | 20.1 |
| NS(=O)(=O)c1cccc(-n2c(S)nc3ccc(Cl)cc3c2=O)c1 | 45.1 |
| Cc1ccc2nc(S)n(-c3cccc(S(N)(=O)=O)c3)c(=O)c2c1 | 58.9 |

The next compounds have a lower Ki than those just listed; values first:

| Ki [nM] | Structure (SMILES) |
| --- | --- |
| 15.6 | COc1cccc2c(=O)n(-c3cccc(S(N)(=O)=O)c3)c(S)nc12 |
| 15.4 | NS(=O)(=O)c1cccc(-n2c(S)nc3cc(Cl)ccc3c2=O)c1 |
| 13 | COc1ccc2nc(S)n(-c3cccc(S(N)(=O)=O)c3)c(=O)c2c1 |
| 9.5 | NS(=O)(=O)c1cccc(-n2c(S)nc3c(Cl)cccc3c2=O)c1 |
| 4.4 | NS(=O)(=O)c1cccc(-n2c(S)nc3ccc(F)cc3c2=O)c1 |
| 4 | NS(=O)(=O)c1cccc(-n2c(S)nc3c(Br)cccc3c2=O)c1 |
| 2.7 | NS(=O)(=O)c1cccc(-n2c(S)nc3cc(F)ccc3c2=O)c1 |
| 1.5 | NS(=O)(=O)c1cccc(-n2c(S)nc3ccc(I)cc3c2=O)c1 |

Source: ChEMBL document CHEMBL4024724, “Synthesis of new 3-(2-mercapto-4-oxo-4H-quinazolin-3-yl)-benzenesulfonamides with strong inhibition properties against the tumor associated carbonic anhydrases IX and XII” (Bioorg Med Chem, 2017)
